This note sets out measurements from article PMC7006816, “Human β-Defensin 2 Mediated Immune Modulation as Treatment for Experimental Colitis” (Frontiers in Immunology, 2020).

Assay [1] has as its system human primary PBMC's of ulcerative colitis patients. As to the kind of experiment: Stimulation of PBMCs of ulcerative colitis patients with LPS, cytokine release. The assay is classed as cell-based. To be noted: LPS 20 pg/ml; 10 μg/mL hBD2; colitis patients n = 4; LegendPlex. The protocol: Heparinized blood was diluted 1/1 v/v with RPMI (Gibco) and was subjected to Ficoll-Paque Plus (GE healthcare) density centrifugation within 2 h of drawing. Plasma was collected from the top from individual donors and was kept on ice until it was used at 2% in the culture medium (autologous culture medium). Isolated PBMC's were re-suspended in autologous culture medium and seeded in 96-well culture plates with 115.500 cells per well (Figure 1) or 200.000 cells per well (Figure 2) in a total of 200 μl. PBMC's from the same donor were stimulated with 100, 10 or 1 μg/ml of hBD2 either alone or together with 20 pg/ml lipopolysaccharide (LPS) (E. coli, O111:B4, Sigma L4391) or with 0.3 μg/ml Pam3CSK4 (InvivoGen). The supernatants were collected after incubation at 37°C for 24 h, and stored at −80°C until cytokine measurement.
The experiment in Figure 2 was performed with 8 subjects (4 controls and 4 colitis patients) to study the impact of disease status on treatment efficacy. Clinical status of these subjects were subtotal remission (Simponi and Salofalk), remission (Vedolizumab), mild disease (Infliximab, Salofalk, and Prednisolon), and moderate disease (Vedolizumab). PBMCs from these subjects were analyzed for IL-1b, TNF-a, IFN-g, IL-12, and IL-23 expression using a human inflammation cytometric bead array (LegendPlex Biolegends) according to manufacturer's instructions.

Assay [2] has as its system BALB/cByJ mice with TNBS colitis. Kind of assay: TNBS colitis model. It counts as in vivo, mouse. To be noted: hBD2 0.1 mg/kg s.c. once a day. How it is done:
The TNBS colitis study was performed by Farma-Cros Ibérica according to directive 86/609 EEC and approved by Novozymes science ethics committee. Male BALB/cByJ mice were used (Janvier) and each group consisted of 15 animals. Animal allocation to all experimental groups was done in a randomized manner. Colitis was induced on day 0 by intracolonic (distal) administration of trinitrobenzene sulfonic acid (TNBS), 1 mg/mouse in 50% ethanol under mild anesthesia (ketamine/xylazine). Treatment of the animals started on day 0 after induction of colitis. All compounds were applied s.c. Mice received PBS (TNBS control), Prednisolone (10 mg/kg), or hBD2 0.1 mg/kg), respectively. In the TNBS control group as well as in the Prednisolone group, 2 animals had to be sacrificed before the end of the experiment. All other animals were sacrificed on day 10. Daily clinical assessment was carried out to calculate a validated clinical DAI ranging from 0 to 4 according to the following parameters: body weight loss, presence or absence of rectal bleeding, stool consistency.
Sections of the colon were taken from each animal and preserved in neutral buffered formaline for subsequent histological analysis. Sections were stained using haematoxylin and eosin for further scoring.

Where no end group is shown, it is not given here.

As to “human β-defensin 2 (GIGDPVTCLKSGAICHPVFCPRRYKQIGTCGLPGTKCCKKP; not fully specified; ends and bridges not checked) [hBD2, Recombinant human β-defensin 2 expressed in E. coli as his-tagged thioredoxin fusion, cleaved and purified, natural tertiary structure]”, the “Proinflammatory immune response (IL-1β, TNF-α, INF-γ, IL-23, IL-12p70 release)” value in assay [1] is recorded as “successfully attenuated the proinflammatory immune response”. In addition, in assay [2] (TNBS), the “Microscopic analysis of the colon (mucosa)” value is given as “nearly normal mucosa”. For the same substance, the Weight change entry in assay [2] (TNBS 1 mg/mouse, n = 15) is “trended toward increased weight gain from day 1–7”. Besides, in assay [2] (TNBS, n = 15), the Colon weight entry is “significantly reduced colon weight”, the “Macroscopic score of colon” value is recorded as “significantly improved” and the “Microscopic score of colon” value is given as “significantly improved”.
